“Also recorded” adds a separate entry of the source.
Columns and labels:
Format in all cases: cell-based
[1] = tested on: human peripheral blood mononuclear cells (PBMCs); test: Multiplexed immunoassays for human cytokines in PBMCs
Experimental: (§1) Example 5: High-throughput screens in porcine blood: Curated compound collections were obtained from the Institute for Therapeutics Discovery & Development at the University of Minnesota. Compound transfers from source (80 nL of 10 mM stocks) to assay plates were performed using an Echo 550 acoustic liquid handler (Labcyte, Sunnyvale, Calif.). For most libraries, a target final concentration of 10 μM of compound (in a final volume of 80 μL for the assay described below) was achieved. Compound plates were hermetically sealed and stored at −80° C. until used. Fresh, heparin-anticoagulated porcine blood from healthy animals were obtained under USDA supervision from Midwest Research Swine, LLC (Glencoe, Minn.). 80 μL of hematocrit-enriched porcine blood (low-speed centrifugation, followed by resuspension in DMEM supplemented with 10% fetal bovine serum) was added to compound plates and incubated for 15 h. The following day, the plates were briefly centrifuged (100 g, 10 min), and supernatants were transferred using an automated ViaFlow 384 transfer device (Integra Biosciences Corp., Hudson, N.H.) to assay plates containing of 10^6 cells/mL of each of the following NF-κB/secreted alkaline phosphatase reporter cells suspended in HEK-Blue Detection Media: human IFN-α/β, human IFN-γ, human TNF-α/IL-1β (InvivoGen, San Diego, Calif.). NF-κB translocation was assayed spectrophotometrically using an alkaline phosphatase-specific chromogen (present in HEK-detection medium as supplied by InvivoGen) at 620 nm using a SpectraMax M4 multimode microplate reader (Molecular Devices, Sunnyvale, Calif.). Z′ factors were computed for each TLR/NOD-specific signals. Hits were defined as signals >4σ (in-plate standard deviations for test compounds above negative control means), were deconvoluted in full dose-response assays in human TLR-2/-3/-4/-5/-7/-8/-9 and NOD-1/NOD-2-specific reporter cells in liquid handler-assisted assay formats as described previously. Example 6: Murine knockout cell-lines: The following reagents were obtained through BEI Resources, NIAID, NIH: the microglial cell line derived from MAL/MyD88 double knockout Mice (NR-9904), and the macrophage cell line derived from TRIF/TRAM knockout mice (NR-9568). Example 7: Human NOD1/2-specific reporter gene assays (NF-κB induction), and TLR-2/-3/-4/-5/-7/-8/-9/STING/ISG counter-screens: The induction of NF-κB was quantified using human TLR-2/-3/-4/-5/-7/-8/-9/NOD-1/NOD-2/STING/ISG-specific, rapid-throughput, liquid handler-assisted reporter gene assays as previously described by us (Wu, W. et al. J. Med. Chem. 2010, 53, 3198-3213; Shukla, N. M. et al. J. Med. Chem. 2010, 53, 4450-4465; Agnihotri, G. et al. J. Med. Chem. 2011, 54, 1490-1510 and Ukani, R. et al. Bioorg. Med. Chem. Lett. 2012, 22, 293-295). […]

[2] = tested on: human whole blood; test: Cytokine/chemokine induction in human whole blood
[3] = tested on: RAW264.7 murine macrophages; test: Cytokine/chemokine induction in wild-type RAW264.7 murine macrophages (multiplexed immunoassay); conditions: wild-type RAW264.7 murine macrophage cell line
Experimental: (§2) Cytokine induction by 7e and 7f was examined in murine-derived cell lines. […] The absence of activity was not due to extensive plasma protein binding by re-examining under near-serum-free conditions.
(§3) Example 5: High-throughput screens in porcine blood: Curated compound collections were obtained from the Institute for Therapeutics Discovery & Development at the University of Minnesota. Compound transfers from source (80 nL of 10 mM stocks) to assay plates were performed using an Echo 550 acoustic liquid handler (Labcyte, Sunnyvale, Calif.). For most libraries, a target final concentration of 10 μM of compound (in a final volume of 80 μL for the assay described below) was achieved. Compound plates were hermetically sealed and stored at −80° C. until used. Fresh, heparin-anticoagulated porcine blood from healthy animals were obtained under USDA supervision from Midwest Research Swine, LLC (Glencoe, Minn.). 80 μL of hematocrit-enriched porcine blood (low-speed centrifugation, followed by resuspension in DMEM supplemented with 10% fetal bovine serum) was added to compound plates and incubated for 15 h. […] NF-κB translocation was assayed spectrophotometrically using an alkaline phosphatase-specific chromogen (present in HEK-detection medium as supplied by InvivoGen) at 620 nm using a SpectraMax M4 multimode microplate reader (Molecular Devices, Sunnyvale, Calif.). […] Example 7: Human NOD1/2-specific reporter gene assays (NF-κB induction), and TLR-2/-3/-4/-5/-7/-8/-9/STING/ISG counter-screens: The induction of NF-κB was quantified using human TLR-2/-3/-4/-5/-7/-8/-9/NOD-1/NOD-2/STING/ISG-specific, rapid-throughput, liquid handler-assisted reporter gene assays as previously described by us (Wu, W. et al. J. Med. Chem. 2010, 53, 3198-3213; Shukla, N. M. et al. J. Med. Chem. 2010, 53, 4450-4465; Agnihotri, G. et al. J. Med. Chem. 2011, 54, 1490-1510 and Ukani, R. et al. Bioorg. Med. Chem. Lett. 2012, 22, 293-295). […]

[4] = tested on: macrophage cell line derived from TRIF/TRAM knockout mice (NR-9568); test: Cytokine/chemokine induction in TRIF/TRAM double-knockout cell line; conditions: TRIF/TRAM double-knockout murine cell line
Experimental: as §2, §3

[5] = tested on: microglial cell line derived from MAL/MyD88 double knockout Mice (NR-9904); test: Cytokine/chemokine induction in MAL/MyD88 double-knockout cell line; conditions: MAL/MyD88 double-knockout murine cell line
Experimental: as §2, §3

[6] = target: T1, human NOD2 (Homo sapiens, UniProt Q9HC29); test: human NOD2 specific reporter gene assay (NF-κB induction); conditions: for hNOD2-agonistic activity (in words): human NOD2 reporter gene assay; for EC50: human NOD2 specific reporter gene assay, arithmetic mean of quadruplicate samples, NA* indicates inactive under the tested conditions, read-out: hNOD2 Agonistic Activity (μM), EC50
T1 construct: host or cells: HEK293
Experimental: as §1, with “293-295). HEK293 cells stably co-transfected with the appropriate hTLR and secreted alkaline phosphatase (sAP) were maintained in HEK-Blue™ Selection medium. Stable expression of secreted alkaline phosphatase (sAP) under control of NF-κB/AP-1/IRF promoters is inducible by appropriate innate immune stimuli, and extracellular sAP in the supernatant is proportional to NF-κB/IRF induction. Reporter cells were incubated at a density of ˜10^5 cells/ml in a volume of 80 μl/well, in 384-well, flat-bottomed, cell culture-treated microtiter plates in the presence of graded concentrations of stimuli. sAP was assayed spectrophotometrically using an alkaline phosphatase-specific chromogen (present in HEK-detection medium as supplied by InvivoGen) at 620 nm. Example 8: Multiplexed immunoassays for human cytokines: Fresh human peripheral blood mononuclear cells (hPBMC) were isolated from human blood obtained by venipuncture in Cell Preparation Tubes (CPT, Beckton-Dickinson) with informed consent and as per guidelines approved by the University of Minnesota Human Subjects Experimentation Committee. Aliquots of PBMCs or THP-1 cells (10^5 cells in 100 μL/well) were stimulated for 16 h with graded concentrations of test compounds.” for “293-295).”

T1 sequence (Q9HC29 whole entry): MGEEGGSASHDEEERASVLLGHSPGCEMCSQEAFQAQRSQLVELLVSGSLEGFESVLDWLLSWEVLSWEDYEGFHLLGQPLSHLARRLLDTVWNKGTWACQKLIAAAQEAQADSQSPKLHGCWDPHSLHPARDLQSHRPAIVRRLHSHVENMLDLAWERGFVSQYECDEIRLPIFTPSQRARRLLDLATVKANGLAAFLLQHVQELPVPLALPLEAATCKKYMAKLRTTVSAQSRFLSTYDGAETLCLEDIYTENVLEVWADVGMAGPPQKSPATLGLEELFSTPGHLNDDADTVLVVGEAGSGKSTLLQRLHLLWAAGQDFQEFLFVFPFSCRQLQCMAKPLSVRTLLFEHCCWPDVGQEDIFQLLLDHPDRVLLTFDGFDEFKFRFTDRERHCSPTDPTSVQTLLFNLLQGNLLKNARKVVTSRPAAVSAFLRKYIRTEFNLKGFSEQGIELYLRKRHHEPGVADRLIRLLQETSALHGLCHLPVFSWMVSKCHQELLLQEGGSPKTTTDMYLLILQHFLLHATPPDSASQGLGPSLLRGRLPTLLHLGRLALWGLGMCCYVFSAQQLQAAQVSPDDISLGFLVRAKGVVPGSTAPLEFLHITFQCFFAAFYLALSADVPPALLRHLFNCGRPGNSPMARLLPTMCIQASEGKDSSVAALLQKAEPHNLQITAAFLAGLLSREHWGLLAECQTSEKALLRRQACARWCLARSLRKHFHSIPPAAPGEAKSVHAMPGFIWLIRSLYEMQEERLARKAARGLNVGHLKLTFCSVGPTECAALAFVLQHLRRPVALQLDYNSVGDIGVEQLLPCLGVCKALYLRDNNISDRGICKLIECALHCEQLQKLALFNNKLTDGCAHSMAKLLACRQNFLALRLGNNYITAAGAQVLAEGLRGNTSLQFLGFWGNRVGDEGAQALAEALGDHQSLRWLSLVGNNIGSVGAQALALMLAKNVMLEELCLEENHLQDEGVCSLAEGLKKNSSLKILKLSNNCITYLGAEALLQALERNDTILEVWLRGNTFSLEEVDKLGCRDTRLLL

CCCCOC(=O)[C@@H](CCC(N)=O)NC(=O)[C@H](C)NC(=O)[C@@H](C)O[C@H]1[C@H](O)[C@@H](CO)OC(O)[C@@H]1NC(C)=O (stereo partly drawn) [murabutide, N-Acetyl-muramyl-LAlanyl-D-Glutamin-n-butyl-ester, reference compound]
induction of chemokines and cytokines [1]: induced significant levels of cytokines and chemokines
induction of cytokines and chemokines [2]: induced significant levels of cytokines and chemokines
induction of chemokines and proinflammatory cytokines [3]: potently immunostimulatory; also recorded: induction of chemokines and cytokines
cytokine and chemokine induction [4]: abrogation of responsiveness
cytokine and chemokine induction [5]: abrogation of responsiveness

CCCCCc1nc2ccccc2n1-c1csc(C(=N)N)c1 [Compound 13b, 4-(2-Pentyl-1H-benzo[d]imidazol-1-yl)thiophene-2-carboximidamide]
hNOD2-agonistic activity (in words) [6]: weak activity
EC50 [6]: 6.57 µM

O=C(Nc1ccncc1)c1cc(-n2cnc3ccccc32)cs1 [Compound 2i, 4-(1H-Benzo[d]imidazol-1-yl)-N-(pyridin-4-yl)thiophene-2-carboxamide]
hNOD2-agonistic activity (in words) [6]: inactive

NC(=O)c1cnc(-n2cnc3ccccc32)s1 [Compound 3i, 2-(1H-Benzo[d]imidazol-1-yl)thiazole-5-carboxamide]
hNOD2-agonistic activity (in words) [6]: devoid of activity

N=C(NO)c1cc(-n2cnc3ccccc32)cs1 [Compound 4b, 4-(1H-Benzo[d]imidazol-1-yl)-N-hydroxythiophene-2-carboximidamide]
hNOD2-agonistic activity (in words) [6]: inactive

NC(=O)c1cccc(-n2cnc3ccccc32)c1 [Compound 3k, 3-(1H-Benzo[d]imidazol-1-yl)benzamide]
hNOD2-agonistic activity (in words) [6]: devoid of activity

O=C(NCc1ccccc1)c1cc(-n2cnc3ccccc32)cs1 [Compound 2g, 4-(1H-Benzo[d]imidazol-1-yl)-N-benzylthiophene-2-carboxamide]
hNOD2-agonistic activity (in words) [6]: inactive

C=C(C)CCc1nc2ccccc2n1-c1csc(C(N)=O)c1 [Compound 7n, 4-(2-(3-Methylbut-3-en-1-yl)-1H-benzo[d]imidazol-1-yl)thiophene-2-carboxamide]
hNOD2-agonistic activity (in words) [6]: potencies very similar to the butyl analogue (7d)
EC50 [6]: 3.24 µM

CCOC(=O)c1cc(-n2cnc3ccccc32)cs1 [Compound 1, Ethyl 4-(1H-benzo[d]imidazol-1-yl)thiophene-2-carboxylate]
induction of chemokines and cytokines [1]: None of the small molecules (including 1, as well as the optimized, equipotent analogues 7e and 7f) showed any activity
induction of cytokines and chemokines [2]: None of the small molecules (including 1, as well as the optimized, equipotent analogues 7e and 7f) showed any activity

Reference: patent publication US11465998B2, “Therapeutic compounds and methods of use thereof” (Regents of the University of Minnesota, priority 2019, dated 2022)
